Source: patent publication US5567716A, “Trans and cis traumatic acid salts having cicatrizant activity associated to bacteriostatic, antiviral, antibiotic or antifungal activity” (priority 1992, dated 1996)

Columns and labels:
experimental animal = conditions: topical route; cited from earlier work
Balb/C 3T3 fibroblasts = assay: Cell growth of Balb/C 3T3 fibroblasts, crystal violet colorimetry (1.1b); assay type: cell-based, Mouse; conditions: for cell growth t2/t1: 48 h/24 h, control 76.776
Protocol: Mouse Balb/C 3T3 fibroblasts were grown in DMEM medium supplemented with penicillin (100 units/ml) and streptomycin (0.1 mg/ml). For experimental purposes, cells are routinely inoculated in […] diameter culture dishes (5000cells/dish) and cultured overnight.
The compounds to be tested are solubilized in DMEM+10%FCS and DMSO to obtain the final concentration of 10^-5 M, 10^-6 M e 10^-7 M in 0.05% DMSO.
The cells number is measured 4, 24 and 48 hours after seeding. The cell growth is evaluated as t2/t1 ratio (%).

man = conditions: burns therapy; cited from earlier work
3T3 fibroblasts = assay: Cellular proliferation of 3T3 fibroblasts, neutral red colorimetry (1.1a); assay type: cell-based, Mice
Protocol: Experiments on 3T3 fibroblasts
Mice 3T3 fibroblasts cultures sown at a 40.000/ml concentration on plates having 6 wells in a DMEM culture medium enriched with 10% calf serum are used. After 24 hours culture, the 90 prepared wells are divided in order to allow the analyses of the compounds of the invention, every compound to be tested being used respectively at a concentration of 0.1, 1 and 10 μg/ml by subsequent evaluations after 48 and 72 hours of incubation.
Hexadecyltrimethylammoniun (ETA) traumatare: solubilized in water and brought to the desired final concentrations of 0.1. 1 and 10 μg/ml by progressive dilutions;
Ethanolamine traumatate: solubilized in water and brought to the final concentrations of 0.1, 1 and 10 μg/ml by progressive dilutions;
Traumatic acid: neutralized with sodium hydroxyde and solubilized in water, then brought to the final concentrations of 0.1, 1 and 10 μg/ml by progressive dilutions with the culture medium.
The compounds are added to the cells after 24 hours culture. The cells number is measured by colorimetry with the neutral red intravital stain after 24, 48, 72 hours of incubation.

[1] = tested on: psoriatic patients or patients affected by acne, dermatitis seborrheic, neurodermatitis and itches; conditions: trachoma, herpetic keratitis, verruca; cited from earlier work
herpetic keratitis = conditions: topic and systemic administration; cited from earlier work

O=C(O)/C=C/CCCCCCCCC(=O)O [traumatic acid, 10-dodecendioic]
reepithelializing and antiirritant action (experimental animal): reepithelializing and antiirritant action | Cell density (Balb/C 3T3 fibroblasts; 4 h (t0), 10^-5M, control 0.300): 0.478 | Cell density (Balb/C 3T3 fibroblasts; 4 h (t0), 10^-6M, control 0.300): 0.495 | Cell density (Balb/C 3T3 fibroblasts; 4 h (t0), 10^-7M, control 0.300): 0.459 | Cell density (Balb/C 3T3 fibroblasts; 24 h (t1), 10^-5M, control 0.481): 0.317 | Cell density (Balb/C 3T3 fibroblasts; 24 h (t1), 10^-6M, control 0.481): 0.320 | Cell density (Balb/C 3T3 fibroblasts; 24 h (t1), 10^-7M, control 0.481): 0.323 | Cell density (Balb/C 3T3 fibroblasts; 48 h (t2), 10^-5M, control 0.849): 0.657 | Cell density (Balb/C 3T3 fibroblasts; 48 h (t2), 10^-6M, control 0.849): 0.657 | Cell density (Balb/C 3T3 fibroblasts; 48 h (t2), 10^-7M, control 0.849): 0.740 | cell growth t2/t1 (Balb/C 3T3 fibroblasts; 10^-5M): 112.273% | cell growth t2/t1 (Balb/C 3T3 fibroblasts; 10^-6M): 95.638% | cell growth t2/t1 (Balb/C 3T3 fibroblasts; 10^-7M): 135.554% | reepithelialization times (man): reduces the reepithelialization times | effect on cells proliferation (3T3 fibroblasts; 0.1 μg/ml, in words): able to affect cells proliferation according to a not statistically significant trend | effect on cellular proliferation (3T3 fibroblasts; 1 μg/ml, in words, ETA salt > ethanolamine salt = traumatic acid): able to increase cellular proliferation | cells numeration (colorimetric, neutral red) (3T3 fibroblasts; 24 hours of incubation, 0.1 (head: μg/ml), control 0.579 ± 0.021): 0.486 ± 0.029 | cells numeration (colorimetric, neutral red) (3T3 fibroblasts; 24 hours of incubation, 1.0 (head: μg/ml), control 0.579 ± 0.021): 0.510 ± 0.008 | cells numeration (colorimetric, neutral red) (3T3 fibroblasts; 24 hours of incubation, 10.0 (head: μg/ml), control 0.579 ± 0.021): 0.543 ± 0.019 | cells numeration (colorimetric, neutral red) (3T3 fibroblasts; 48 hours of incubation, 0.1 (head: μg/ml), control 1.334 ± 0.050): 1.497 ± 0.087 | cells numeration (colorimetric, neutral red) (3T3 fibroblasts; 48 hours of incubation, 1.0 (head: μg/ml), control 1.334 ± 0.050): 1.431 ± 0.047 | cells numeration (colorimetric, neutral red) (3T3 fibroblasts; 48 hours of incubation, 10.0 (head: μg/ml), control 1.334 ± 0.050, ** p < 0.01 significant reduction): 1.442 ± 0.060 | cells numeration (colorimetric, neutral red) (3T3 fibroblasts; 72 hours of incubation, 0.1 (head: μg/ml), control 2.360 ± 0.125): 2.492 ± 0.070 | cells numeration (colorimetric, neutral red) (3T3 fibroblasts; 72 hours of incubation, 1.0 (head: μg/ml), control 2.360 ± 0.125): 2.349 ± 0.125 | cells numeration (colorimetric, neutral red) (3T3 fibroblasts; 72 hours of incubation, 10.0 (head: μg/ml), control 2.360 ± 0.125, ** p < 0.01 significant reduction): 2.446 ± 0.128 | time necessary for the cells to reach the confluence (3T3 fibroblasts; side control experiment, ETA and ethanolamine salts > traumatic acid): reduce the time normally necessary for the cells to reach the confluence | clinical results [1]: Positive clinical results | effect on herpetic keratitis model (herpetic keratitis): effectiveness on an in vivo herpetic keratitis model both after topic and systemic administration
